# Measurements reported in publication PMC5844225 (Journal of medicinal chemistry, 2016).
# How the values were obtained:
# S. mansoni schistosomula = test: Automated ex vivo larval S. mansoni HCS assay; type: cell-based, Schistosoma mansoni; conditions: 48 h exposure
# SmTGR = conditions: cited from earlier work
Structure (SMILES),schistosomula phenotype (S. mansoni schistosomula),SmTGR inhibition mode (SmTGR)
"Cc1noc(/C=C/c2ccccn2)c1[N+](=O)[O-] [Compound 3, 2-[2-(3-methyl-4-nitro-5-isoxazolyl)vinyl]pyridine]",internal disruption of larvae,
"O=S(=O)(Cc1ccccc1)c1nc2ccccc2s1 [Compound 4, 2-(benzylsulfonyl)-1,3-benzothiazole]",internal disruption of larvae,
"Cc1c(-c2cnccn2)ssc1=S [OLT, oltipraz]",,noncompetitive inhibitor
